# Where a name gives a salt, the structure may show the parent alone.
# Experiments:
# [1] = test system: BT474 (human breast carcinoma); test: In vitro tumor cell proliferation assay (Cell Titer-Glo luminescent cell viability), BT474; format: cell-based; conditions: BT-474, 72 h, BT474 cells, 72 hours of drug exposure, ATP luminescence readout, read-out: IC50, anti-proliferative activity (inhibition of cell proliferation)
# In short: (§1)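 A431 or BT474 cells were exposed 72 h at 37°C to serially diluted compounds (final 100 μM down to 64 pM, 0.1% DMSO). Viable cells were read by ATP luminescence (CellTiter-Glo) and IC50 values derived.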
# [2] = test system: A431 cells (human epidermoid carcinoma); test: In vitro tumor cell proliferation assay (Cell Titer-Glo luminescent cell viability), A431; format: cell-based; conditions: A-431, 72 h, 72 hours of drug exposure, ATP luminescence readout, read-out: IC50, anti-proliferative activity (inhibition of cell proliferation)
# In short: as §1
SMILES,IC50 [1] [µM],IC50 [2] [µM]
"O=C(O)Cn1ncc2c1CCc1c-2sc2ncnc(Nc3ccc(OCc4cccc(F)c4)c(Cl)c3)c12 [Example 191, [6-({3-chloro-4-[(3-fluorobenzyl)oxy]phenyl}amino)-4,5-dihydro-3H-pyrimido[5′,4′:4,5]thieno[2,3-e]indazol-3-yl]acetic acid]",≤ 50,≤ 50
"OC[C@H]1CCCN1CCn1cc2c(n1)CCc1c-2sc2ncnc(Nc3ccc(F)c(Cl)c3)c12 [Example 29, [(2R)-1-(2-{6-[(3-chloro-4-fluorophenyl)amino]-4,5-dihydro-2H-pyrimido[5′,4′:4,5]thieno[2,3-e]indazol-2-yl}ethyl)pyrrolidin-2-yl]methanol]",≤ 5,≤ 5
"Fc1cccc(Cn2ncc3cc(Nc4ncnc5sc6c(c45)CCc4c-6cnn4CCN4CCNCC4)ccc32)c1 [Example 298, N-[1-(3-fluorobenzyl)-1H-indazol-5-yl]-3-(2-piperazin-1-ylethyl)-4,5-dihydro-3H-pyrimido[5′,4′:4,5]thieno[2,3-e]indazol-6-amine]",≤ 1,≤ 5
"O[C@H](Cn1ccnc1)Cn1ncc2c1CCc1c-2sc2ncnc(Nc3ccc(OCc4cccc(F)c4)c(Cl)c3)c12 [Example 170, (2R)-1-[6-({3-chloro-4-[(3-fluorobenzyl)oxy]phenyl}amino)-4,5-dihydro-3H-pyrimido[5′,4′:4,5]thieno[2,3-e]indazol-3-yl]-3-(1H-imidazol-1-yl)propan-2-ol trifluoroacetate (salt)]",≤ 1,≤ 50
"CNCCn1cc2c(n1)CCc1c-2sc2ncnc(Nc3ccc(OCc4ccccn4)c(Cl)c3)c12 [Example 107, N-[3-chloro-4-(pyridin-2-ylmethoxy)phenyl]-2-[2-(methylamino)ethyl]-4,5-dihydro-2H-pyrimido[5′,4′:4,5]thieno[2,3-e]indazol-6-amine]",≤ 1,≤ 5
"CC(C)(C)OC(=O)N1CCC(n2cc3c(n2)CCc2c-3sc3ncnc(Nc4ccc(OCc5cccc(F)c5)c(Cl)c4)c23)CC1 [Example 216, tert-butyl 4-[6-({3-chloro-4-[(3-fluorobenzyl)oxy]phenyl}amino)-4,5-dihydro-2H-pyrimido[5′,4′:4,5]thieno[2,3-e]indazol-2-yl]piperidine-1-carboxylate]",≤ 50,≤ 50
"OCCn1cc2c(n1)CCc1c-2sc2ncnc(Nc3ccc(F)c(Cl)c3)c12 [Example 1, 2-{6-[(3-chloro-4-fluorophenyl)amino]-4,5-dihydro-2H-pyrimido[5′,4′:4,5]thieno[2,3-e]indazol-2-yl}ethanol]",≤ 1,≤ 5
"Fc1cccc(Cn2ncc3cc(Nc4ncnc5sc6c(c45)CCc4c-6cnn4CCN4CCOCC4)ccc32)c1 [Example 296, N-[1-(3-fluorobenzyl)-1H-indazol-5-yl]-3-(2-morpholin-4-ylethyl)-4,5-dihydro-3H-pyrimido[5′,4′:4,5]thieno[2,3-e]indazol-6-amine]",≤ 1,≤ 5
"CCN(CCOC)CCn1cc2c(n1)CCc1c-2sc2ncnc(Nc3ccc(F)c(Cl)c3)c12 [Example 24, N-(3-chloro-4-fluorophenyl)-2-{2-[ethyl(2-methoxyethyl)amino]ethyl}-4,5-dihydro-2H-pyrimido[5′,4′:4,5]thieno[2,3-e]indazol-6-amine]",≤ 5,≤ 5
"COCCN1CCN(C(=O)Cn2cc3c(n2)CCc2c-3sc3ncnc(Nc4ccc(OCc5cccc(F)c5)c(Cl)c4)c23)CC1 [Example 186, N-{3-chloro-4-[(3-fluorobenzyl)oxy]phenyl}-2-{2-[4-(2-methoxyethyl)piperazin-1-yl]-2-oxoethyl}-4,5-dihydro-2H-pyrimido[5′,4′:4,5]thieno[2,3-e]indazol-6-amine]",≤ 1,≤ 5
"CN1CCN(CCn2cc3c(n2)CCc2c-3sc3ncnc(Nc4ccc(Br)c(Cl)c4)c23)CC1 [Example 50, N-(4-bromo-3-chlorophenyl)-2-[2-(4-methylpiperazin-1-yl)ethyl]-4,5-dihydro-2H-pyrimido[5′,4′:4,5]thieno[2,3-e]indazol-6-amine]",≤ 5,≤ 5
"CN(C)[C@@H]1CCN(CCn2cc3c(n2)CCc2c-3sc3ncnc(Nc4ccc(F)c(Cl)c4)c23)C1 [Example 3, N-(3-chloro-4-fluorophenyl)-2-{2-[(3R)-3-(dimethylamino)pyrrolidin-1-yl]ethyl}-4,5-dihydro-2H-pyrimido[5′,4′:4,5]thieno[2,3-e]indazol-6-amine]",≤ 5,≤ 5
"O=C(CN1CCCC1)N1CCC(Cn2cc3c(n2)CCc2c-3sc3ncnc(Nc4ccc(OCc5cccc(F)c5)c(Cl)c4)c23)CC1 [Example 239, N-{3-chloro-4-[(3-fluorobenzyl)oxy]phenyl}-2-{[1-(pyrrolidin-1-ylacetyl)piperidin-4-yl]methyl}-4,5-dihydro-2H-pyrimido[5′,4′:4,5]thieno[2,3-e]indazol-6-amine]",≤ 1,≤ 5
Fc1cccc(COc2ccc(Nc3ncnc4sc5c(c34)CCc3c-5cnn3CCCN3CCCC3)cc2Cl)c1 [Example 272],≤ 1,≤ 5
"CN1CCN(CCn2cc3c(n2)CCc2c-3sc3ncnc(Nc4ccc5nn(Cc6cccc(F)c6)cc5c4)c23)CC1 [Example 327, N-[2-(3-fluorobenzyl)-2H-indazol-5-yl]-2-[2-(4-methylpiperazin-1-yl)ethyl]-4,5-dihydro-2H-pyrimido[5′,4′:4,5]thieno[2,3-e]indazol-6-amine]",≤ 5,≤ 5
"CN1CCN(CC(=O)N2CCC(n3cc4c(n3)CCc3c-4sc4ncnc(Nc5ccc(OCc6cccc(F)c6)c(Cl)c5)c34)CC2)CC1 [Example 224, N-{3-chloro-4-[(3-fluorobenzyl)oxy]phenyl}-2-{1-[(4-methylpiperazin-1-yl)acetyl]piperidin-4-yl}-4,5-dihydro-2H-pyrimido[5′,4′:4,5]thieno[2,3-e]indazol-6-amine]",≤ 1,≤ 5

# Results, then the compound that gave them:
IC50 [1] [µM],IC50 [2] [µM],SMILES
≤ 1,≤ 5,"NCC(=O)OCCn1cc2c(n1)CCc1c-2sc2ncnc(Nc3ccc(OCc4cccc(F)c4)c(Cl)c3)c12 [Example 315, 2-[6-({3-chloro-4-[(3-fluorobenzyl)oxy]phenyl}amino)-4,5-dihydro-2H-pyrimido[5′,4′:4,5]thieno[2,3-e]indazol-2-yl]ethyl glycinate]"
≤ 1,≤ 5,"CN(C)CCNCCn1cc2c(n1)CCc1c-2sc2ncnc(Nc3ccc(OCc4cccc(F)c4)c(Cl)c3)c12 [Example 67, N′-{2-[6-({3-chloro-4-[(3-fluorobenzyl)oxy]phenyl}amino)-4,5-dihydro-2H-pyrimido[5′,4′:4,5]thieno[2,3-e]indazol-2-yl]ethyl}-N,N-dimethylethane-1,2-diamine]"
≤ 1,≤ 5,"Fc1cccc(COc2ccc(Nc3ncnc4sc5c(c34)CCc3n[nH]cc3-5)cc2Cl)c1 [Example 74, N-{3-chloro-4-[(3-fluorobenzyl)oxy]phenyl}-4,5-dihydro-2H-pyrimido[5′,4′:4,5]thieno[2,3-e]indazol-6-amine]"
≤ 1,≤ 5,"CN1CCN(C(=O)Cn2cc3c(n2)CCc2c-3sc3ncnc(Nc4ccc(OCc5cccc(F)c5)c(Cl)c4)c23)CC1 [Example 183, N-{3-chloro-4-[(3-fluorobenzyl)oxy]phenyl}-2-[2-(4-methylpiperazin-1-yl)-2-oxoethyl]-4,5-dihydro-2H-pyrimido[5′,4′:4,5]thieno[2,3-e]indazol-6-amine]"
≤ 1,≤ 5,"OC[C@H](O)Cn1cc2c(n1)CCc1c-2sc2ncnc(Nc3ccc(OCc4cccc(F)c4)c(Cl)c3)c12 [Example 76, (R)-3-{6-[3-Chloro-4-(3-fluoro-benzyloxy)-phenylamino]-4,5-dihydro-10-thia-2,3,7,9-tetraaza-cyclopenta[a]fluoren-2-yl}-propane-1,2-diol]"
≤ 1,≤ 50,"OCCN(CCO)C[C@@H](O)Cn1cc2c(n1)CCc1c-2sc2ncnc(Nc3ccc(OCc4cccc(F)c4)c(Cl)c3)c12 [Example 144, (2R)-1-[bis(2-hydroxyethyl)amino]-3-[6-({3-chloro-4-[(3-fluorobenzyl)oxy]phenyl}amino)-4,5-dihydro-2H-pyrimido[5′,4′:4,5]thieno[2,3-e]indazol-2-yl]propan-2-ol]"
≤ 1,≤ 50,"OCCNC[C@@H](O)Cn1cc2c(n1)CCc1c-2sc2ncnc(Nc3ccc(OCc4cccc(F)c4)c(Cl)c3)c12 [Example 151, (2R)-1-[6-({3-chloro-4-[(3-fluorobenzyl)oxy]phenyl}amino)-4,5-dihydro-2H-pyrimido[5′,4′:4,5]thieno[2,3-e]indazol-2-yl]-3-[(2-hydroxyethyl)amino]propan-2-ol trifluoroacetate (salt)]"
≤ 1,≤ 50,"Fc1cccc(COc2ccc(Nc3ncnc4sc5c(c34)CCc3nn(CCCl)cc3-5)cc2Cl)c1 [Example 79, 2-(2-chloroethyl)-N-{3-chloro-4-[(3-fluorobenzyl)oxy]phenyl}-4,5-dihydro-2H-pyrimido[5′,4′:4,5]thieno[2,3-e]indazol-6-amine]"
≤ 1,≤ 5,"OCC(O)CN1CCC(CCn2cc3c(n2)CCc2c-3sc3ncnc(Nc4ccc(OCc5cccc(F)c5)c(Cl)c4)c23)CC1 (stereo not shown) [Example 257, 3-(4-{2-[6-({3-chloro-4-[(3-fluorobenzyl)oxy]phenyl}amino)-4,5-dihydro-2H-pyrimido[5′,4′:4,5]thieno[2,3-e]indazol-2-yl]ethyl}piperidin-1-yl)propane-1,2-diol]"
≤ 1,≤ 5,"COCCNCCn1cc2c(n1)CCc1c-2sc2ncnc(Nc3ccc4c(cnn4Cc4cccc(F)c4)c3)c12 [Example 280, N-[1-(3-fluorobenzyl)-1H-indazol-5-yl]-2-{2-[(2-methoxyethyl)amino]ethyl}-4,5-dihydro-2H-pyrimido[5′,4′:4,5]thieno[2,3-e]indazol-6-amine]"

# — patent publication US8207172B2 (Bayer Intellectual Property GmbH, priority 2004, dated 2012)
